The record followed here is paper PMC3914206.

What all share (format): binding
Details in all cases: Compound Concentration 10 µM

The target of assay [1] is T1, panel of 442 kinases (Homo sapiens, UniProt P54646).
T1 construct: purchased KINOMEscan
From the text: (§1) We assessed the selectivity of members of this scaffold using the KINOMEscan methodology across a near comprehensive panel of 442 kinases [[18,27]].

The target in assay [2] is T2, panel of 442 kinases (Homo sapiens, UniProt P00533, DEL746-750).
T2 construct: purchased KINOMEscan
T2 sequence (P00533 with tags, fused parts or gaps DEL746-750): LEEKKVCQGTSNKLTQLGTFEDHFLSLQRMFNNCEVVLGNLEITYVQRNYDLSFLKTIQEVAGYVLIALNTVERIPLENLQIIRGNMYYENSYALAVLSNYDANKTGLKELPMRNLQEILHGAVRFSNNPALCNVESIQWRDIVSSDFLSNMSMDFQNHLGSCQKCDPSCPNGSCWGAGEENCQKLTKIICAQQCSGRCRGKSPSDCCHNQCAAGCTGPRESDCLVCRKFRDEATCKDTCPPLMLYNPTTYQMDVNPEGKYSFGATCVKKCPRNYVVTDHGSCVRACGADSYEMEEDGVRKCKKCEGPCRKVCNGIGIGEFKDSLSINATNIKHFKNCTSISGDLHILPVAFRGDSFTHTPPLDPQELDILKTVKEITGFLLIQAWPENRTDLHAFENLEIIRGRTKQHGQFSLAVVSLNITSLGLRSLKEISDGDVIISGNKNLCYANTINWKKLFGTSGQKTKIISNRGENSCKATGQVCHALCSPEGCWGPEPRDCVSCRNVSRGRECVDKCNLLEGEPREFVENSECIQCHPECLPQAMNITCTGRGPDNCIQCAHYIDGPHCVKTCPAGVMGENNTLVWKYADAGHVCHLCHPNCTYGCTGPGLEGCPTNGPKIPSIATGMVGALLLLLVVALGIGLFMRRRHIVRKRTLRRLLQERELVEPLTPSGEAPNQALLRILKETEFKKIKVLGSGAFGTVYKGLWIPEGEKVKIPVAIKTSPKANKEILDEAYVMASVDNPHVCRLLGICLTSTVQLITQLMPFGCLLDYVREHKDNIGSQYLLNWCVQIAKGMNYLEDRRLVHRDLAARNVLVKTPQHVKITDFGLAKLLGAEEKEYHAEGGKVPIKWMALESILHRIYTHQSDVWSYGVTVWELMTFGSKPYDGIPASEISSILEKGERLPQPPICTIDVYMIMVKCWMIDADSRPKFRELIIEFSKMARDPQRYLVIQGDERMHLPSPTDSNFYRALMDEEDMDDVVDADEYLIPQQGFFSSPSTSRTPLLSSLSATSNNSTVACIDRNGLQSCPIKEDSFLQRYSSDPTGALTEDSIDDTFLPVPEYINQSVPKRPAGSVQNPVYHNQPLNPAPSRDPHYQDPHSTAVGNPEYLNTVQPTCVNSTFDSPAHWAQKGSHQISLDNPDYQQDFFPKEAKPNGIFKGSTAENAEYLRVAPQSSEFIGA
Text: as §1

Assay [3] addresses T3, panel of 442 kinases (Homo sapiens, UniProt Q02750).
T3 construct: purchased KINOMEscan
Text: as §1

In assay [4] the target is T4, panel of 442 kinases (Homo sapiens, UniProt Q9Y2H9).
T4 construct: purchased KINOMEscan
T4 sequence (Q9Y2H9 whole entry): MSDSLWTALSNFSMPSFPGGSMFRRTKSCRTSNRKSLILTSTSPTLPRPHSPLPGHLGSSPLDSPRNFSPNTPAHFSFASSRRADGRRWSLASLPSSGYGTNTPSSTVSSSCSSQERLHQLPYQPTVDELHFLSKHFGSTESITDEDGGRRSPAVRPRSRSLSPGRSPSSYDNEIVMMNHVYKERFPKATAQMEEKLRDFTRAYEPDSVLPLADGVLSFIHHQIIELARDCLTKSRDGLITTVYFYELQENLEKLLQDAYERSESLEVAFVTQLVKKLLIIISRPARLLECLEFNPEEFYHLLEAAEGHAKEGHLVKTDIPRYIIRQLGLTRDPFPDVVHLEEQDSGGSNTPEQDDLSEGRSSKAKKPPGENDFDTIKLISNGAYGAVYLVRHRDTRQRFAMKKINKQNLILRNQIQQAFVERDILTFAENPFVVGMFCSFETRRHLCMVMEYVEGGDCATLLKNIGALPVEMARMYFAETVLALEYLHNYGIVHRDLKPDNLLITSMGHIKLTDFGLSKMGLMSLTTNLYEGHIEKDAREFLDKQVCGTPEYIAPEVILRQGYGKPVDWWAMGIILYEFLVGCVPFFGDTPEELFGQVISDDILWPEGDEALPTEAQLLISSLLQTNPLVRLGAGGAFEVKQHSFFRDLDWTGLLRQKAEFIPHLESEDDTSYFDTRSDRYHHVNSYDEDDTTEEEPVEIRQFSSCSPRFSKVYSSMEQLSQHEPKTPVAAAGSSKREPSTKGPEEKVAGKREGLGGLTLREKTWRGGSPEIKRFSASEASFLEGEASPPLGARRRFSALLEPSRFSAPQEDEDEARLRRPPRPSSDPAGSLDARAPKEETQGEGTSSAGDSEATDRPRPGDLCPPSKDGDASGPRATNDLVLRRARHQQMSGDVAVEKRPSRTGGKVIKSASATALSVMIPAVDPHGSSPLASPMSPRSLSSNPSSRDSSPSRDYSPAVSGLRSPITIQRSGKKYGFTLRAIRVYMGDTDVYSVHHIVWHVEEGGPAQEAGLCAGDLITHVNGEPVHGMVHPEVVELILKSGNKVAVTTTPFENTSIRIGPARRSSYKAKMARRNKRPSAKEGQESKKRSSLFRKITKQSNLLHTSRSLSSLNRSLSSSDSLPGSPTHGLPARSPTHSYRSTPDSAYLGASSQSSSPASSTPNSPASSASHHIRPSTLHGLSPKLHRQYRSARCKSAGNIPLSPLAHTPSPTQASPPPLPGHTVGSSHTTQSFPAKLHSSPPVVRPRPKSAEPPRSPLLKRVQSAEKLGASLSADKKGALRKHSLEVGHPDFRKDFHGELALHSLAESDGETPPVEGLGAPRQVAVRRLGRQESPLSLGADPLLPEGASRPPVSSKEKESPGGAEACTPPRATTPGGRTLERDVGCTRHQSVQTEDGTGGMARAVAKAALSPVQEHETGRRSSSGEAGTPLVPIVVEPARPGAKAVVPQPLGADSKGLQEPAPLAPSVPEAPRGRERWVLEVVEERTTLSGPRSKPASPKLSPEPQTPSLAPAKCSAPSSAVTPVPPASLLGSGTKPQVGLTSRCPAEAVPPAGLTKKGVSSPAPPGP
Text: as §1

SMILES strings stand for the structures.

T1 sequence (P54646 whole entry): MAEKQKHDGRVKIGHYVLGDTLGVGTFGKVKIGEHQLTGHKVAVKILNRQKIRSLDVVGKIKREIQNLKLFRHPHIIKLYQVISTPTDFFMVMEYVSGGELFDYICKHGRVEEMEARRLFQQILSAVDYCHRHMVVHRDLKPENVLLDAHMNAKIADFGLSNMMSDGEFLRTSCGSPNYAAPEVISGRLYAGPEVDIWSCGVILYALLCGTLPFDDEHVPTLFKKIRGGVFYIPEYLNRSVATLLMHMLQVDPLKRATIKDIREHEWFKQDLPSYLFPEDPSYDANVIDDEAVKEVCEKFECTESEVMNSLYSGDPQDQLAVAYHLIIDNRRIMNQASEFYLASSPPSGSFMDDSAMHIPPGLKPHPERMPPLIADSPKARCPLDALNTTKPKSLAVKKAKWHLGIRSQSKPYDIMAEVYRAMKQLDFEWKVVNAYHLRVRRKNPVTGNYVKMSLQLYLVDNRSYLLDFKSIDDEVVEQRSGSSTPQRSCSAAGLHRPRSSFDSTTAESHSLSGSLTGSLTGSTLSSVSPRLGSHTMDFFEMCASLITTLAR
T3 sequence (Q02750 whole entry): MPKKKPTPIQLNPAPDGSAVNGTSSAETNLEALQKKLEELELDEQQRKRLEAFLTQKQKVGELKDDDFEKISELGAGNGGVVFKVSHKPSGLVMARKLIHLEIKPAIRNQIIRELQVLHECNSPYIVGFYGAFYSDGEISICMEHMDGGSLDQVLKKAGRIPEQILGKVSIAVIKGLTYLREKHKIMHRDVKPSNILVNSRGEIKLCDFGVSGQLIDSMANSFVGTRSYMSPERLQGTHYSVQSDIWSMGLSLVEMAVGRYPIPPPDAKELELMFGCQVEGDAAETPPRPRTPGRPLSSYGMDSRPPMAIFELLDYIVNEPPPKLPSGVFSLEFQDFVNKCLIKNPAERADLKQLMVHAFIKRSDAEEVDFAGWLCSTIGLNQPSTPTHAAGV

`COc1cc(C(=O)N2CCC(N3CCN(C)CC3)CC2)ccc1Nc1ncc2c(n1)N(C)c1ccccc1C(=O)N2C` [15 (LRRK2-IN-1)]: at panel of 442 kinases [1], the “KINOMEscan: AMPK-alpha2” value was 66. In addition, at panel of 442 kinases [2], the “KINOMEscan: EGFR(E746-A750del)” value is 72. Moreover, the “KINOMEscan: MEK1” value at panel of 442 kinases [3] is 100. Besides, the “KINOMEscan: MAST1” value at panel of 442 kinases [4] was 100.
Take `COc1cc(C(=O)N2CCC(N3CCN(C)CC3)CC2)ccc1Nc1ncc2c(n1)N1CCc3cccc(c31)C(=O)N2C` [Compound 24]: the “KINOMEscan: MEK1” value on panel of 442 kinases [3] came out at 75. The “KINOMEscan: MAST1” value at panel of 442 kinases [4] is recorded as 73.
With `COc1cc(C(=O)N2CCC(N3CCN(C)CC3)CC2)ccc1Nc1ncc2c(n1)N(C1CCCC1)c1ccccc1C(=O)N2C` [Compound 25, 11-cyclopentyl-2-((2-methoxy-4-(4-(4-methylpiperazin-1-yl)piperidine-1-carbonyl)phenyl)amino)-5-methyl-5H-benzo[e]pyrimido[5,4-b][1,4]diazepin-6(11H)-one], the “KINOMEscan: AMPK-alpha2” value at panel of 442 kinases [1] worked out at 76. In addition, the “KINOMEscan: EGFR(E746-A750del)” value at panel of 442 kinases [2] is reported as 80. Further, the “KINOMEscan: MEK1” value on panel of 442 kinases [3] turned out to be 68. The “KINOMEscan: MAST1” value at panel of 442 kinases [4] is 78.
In the same order, the values of `CCOc1cc(C(=O)N2CCC(N3CCN(C)CC3)CC2)ccc1Nc1ncc2c(n1)N(C1CCCC1)c1ccccc1C(=O)N2C` [Compound 26] are 100, 100, 100 and 100.
